Experimental findings from patent US20060217395A1, “Combinations of paroxetine and 4- (s) - (4-acetyl-piperazin-1-yl) -2- (r)- (4-fluoro-2-methyl- phenyl -piperidine-1-carboxylic acid [1- (r) (3,5-bis-trifluoromethyl-phenyl) -ethyl] methylamide for treatment of depression and / or anxiety” (GLAXO GROUP LIMITED, priority 2003, published 2006) are described below.

Where a name gives a salt, the structure may show the parent alone.

In this assay the test system is mongolian gerbils. Put plainly: gerbil social interaction model (social stress assay). The assay is classed as in vivo. Conditions: one hour after administration. As for the experimental part: Paroxetine hydrochloride hemihydrate (0.03 mg/kg p.o of the paroxetine measured as the free base), 4-(S)-(4-Acetyl-piperazin-1-yl)-2-(R)-(4-fluoro-2-methyl-phenyl)-piperidine-1-carboxylic acid [1-(R)-(3,5-bis-trifluoromethyl-phenyl)-ethyl]-methylamide methansulphonate (hereinafter compound A) (0.03 mg/kg i.p of the compound A measured as the free base) and a combination of paroxetine (0.03 mg/kg p.o. of the paroxetine measured as the free base) and compound A (0.03 mg/kg i.p. of the compound A measured as the free base) were administered independently in mongolian gerbils to assess the effect on time spent in active social interactions.
The results obtained one hour after administration, expressed as a percentage variation of the time spent in active social interactions by each animal in respect to the value obtained by treatment of control animals, are summarised in table 1.

Consider `Fc1ccc([C@@H]2CCNC[C@H]2COc2ccc3c(c2)OCO3)cc1` [Paroxetine hydrochloride hemihydrate, (−)trans-4-(4′-fluorophenyl)3-(3′-4′-methylenedioxyphenoxymethyl) piperidine], for which the “% variation of the time spent in active social interactions in respect to control animals” value (0.03 mg/kg p.o. (measured as the free base)) is recorded as −2.4%.

As for `CC(=O)N1CCN([C@H]2CCN(C(=O)N(C)[C@H](C)c3cc(C(F)(F)F)cc(C(F)(F)F)c3)[C@@H](c3ccc(F)cc3C)C2)CC1.CS(=O)(=O)O` [Compound A, 4-(S)-(4-Acetyl-piperazin-1-yl)-2-(R)-(4-fluoro-2-methyl-phenyl)-piperidine-1-carboxylic acid [1-(R)-(3,5-bis-trifluoromethyl-phenyl)-ethyl]-methylamide methansulphonate], for the setting “0.03 mg/kg i.p. (measured as the free base)”, the “% variation of the time spent in active social interactions in respect to control animals” value is given as 20.7%.
